Reference: article PMC4710522, “A Novel Triazolopyridine-Based Spleen Tyrosine Kinase Inhibitor That Arrests Joint Inflammation” (PLoS ONE, 2016)
“And” between values parts separate entries of the source, which are not always exact repeats. Equal entries are not always repeated.

Tests used:
Assay in all cases: SelectScreen kinase assay
Format in all cases: biochemical
[1] = target: T1, EphB3_h (Homo sapiens, UniProt P54753); conditions: KM ATP, read-out: % control
T1 construct: purchased Life Technologies (Invitrogen) SelectScreen, Z'-LYTE / Adapta
Method in brief: (§1)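 Kinase activity measured by Z'-Lyte or Adapta protocols. Single-point testing used 3 µM compound with ATP at the enzyme's KM, or at 10 or 100 µM as indicated. Values given as % control versus DMSO-only wells (100%).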

[2] = target: T2, TSSK1_h (Homo sapiens, UniProt Q9BXA7); conditions: KM ATP, read-out: % control
T2 construct: purchased Life Technologies (Invitrogen) SelectScreen, Z'-LYTE / Adapta
Method in brief: as §1

[3] = target: Aurora-B_h (Homo sapiens, UniProt Q96GD4)
Method in brief: as §1

[4] = target: T3, CDK9_h (Homo sapiens, UniProt P50750); conditions: KM ATP, read-out: % control
T3 construct: purchased Life Technologies (Invitrogen) SelectScreen, Z'-LYTE / Adapta
Method in brief: as §1

[5] = target: T4, NEK4_h (Homo sapiens, UniProt P51957); conditions: KM ATP, read-out: % control
T4 construct: purchased Life Technologies (Invitrogen) SelectScreen, Z'-LYTE / Adapta
Method in brief: as §1

[6] = target: T5, IRAK4_h (Homo sapiens, UniProt Q9NWZ3); conditions: KM ATP, read-out: % control
T5 construct: purchased Life Technologies (Invitrogen) SelectScreen, Z'-LYTE / Adapta
Method in brief: as §1

[7] = target: T6, MLK1_h (Homo sapiens, UniProt P80192); conditions: KM ATP, read-out: % control
T6 construct: purchased Life Technologies (Invitrogen) SelectScreen, Z'-LYTE / Adapta
Method in brief: as §1

[8] = target: T7, Fer_h (Homo sapiens, UniProt P16591); conditions: KM ATP, read-out: % control
T7 construct: purchased Life Technologies (Invitrogen) SelectScreen, Z'-LYTE / Adapta
Method in brief: as §1

[9] = target: T8, MARK1_h (Homo sapiens, UniProt Q9P0L2); conditions: KM ATP, read-out: % control
T8 construct: purchased Life Technologies (Invitrogen) SelectScreen, Z'-LYTE / Adapta
Method in brief: as §1

[10] = target: T9, CaMKII-alpha_h (Homo sapiens, UniProt Q9UQM7); conditions: KM ATP, read-out: % control
T9 construct: purchased Life Technologies (Invitrogen) SelectScreen, Z'-LYTE / Adapta
Method in brief: as §1

[11] = target: T10, PAK4_h (Homo sapiens, UniProt O96013); conditions: KM ATP, read-out: % control
T10 construct: purchased Life Technologies (Invitrogen) SelectScreen, Z'-LYTE / Adapta
Method in brief: as §1

[12] = target: T11, EphA2_h (Homo sapiens, UniProt P29317); conditions: KM ATP, read-out: % control
T11 construct: purchased Life Technologies (Invitrogen) SelectScreen, Z'-LYTE / Adapta
Method in brief: as §1

[13] = target: T12, DYRK1B_h (Homo sapiens, UniProt Q9Y463); conditions: KM ATP, read-out: % control
T12 construct: purchased Life Technologies (Invitrogen) SelectScreen, Z'-LYTE / Adapta
Method in brief: as §1

[14] = target: T13, AMPK_A2_B1_G1_h (Homo sapiens, UniProt P54646); conditions: KM ATP, read-out: % control
T13 construct: purchased Life Technologies (Invitrogen) SelectScreen, Z'-LYTE / Adapta
Method in brief: as §1

[15] = target: T14, Khs_1 (Homo sapiens, UniProt Q9Y4K4); conditions: KM ATP, read-out: % control
T14 construct: purchased Life Technologies (Invitrogen) SelectScreen, Z'-LYTE / Adapta
Method in brief: as §1

[16] = target: T15, PKC-epsilon_h (Homo sapiens, UniProt Q02156); conditions: KM ATP, read-out: % control
T15 construct: purchased Life Technologies (Invitrogen) SelectScreen, Z'-LYTE / Adapta
Method in brief: as §1

[17] = target: T16, JAK2-JH1-JH2_h (Homo sapiens, UniProt O60674); conditions: KM ATP, read-out: % control
T16 construct: JAK2-JH1-JH2_h; purchased Life Technologies (Invitrogen) SelectScreen, Z'-LYTE / Adapta
Method in brief: as §1

[18] = target: T17, Tie2_h (Homo sapiens, UniProt Q02763); conditions: KM ATP, read-out: % control
T17 construct: purchased Life Technologies (Invitrogen) SelectScreen, Z'-LYTE / Adapta
Method in brief: as §1

[19] = target: T18, Mer_h (Homo sapiens, UniProt Q12866); conditions: KM ATP, read-out: % control
T18 construct: purchased Life Technologies (Invitrogen) SelectScreen, Z'-LYTE / Adapta
Method in brief: as §1

[20] = target: T19, EphB2_h (Homo sapiens, UniProt P29323); conditions: KM ATP, read-out: % control
T19 construct: purchased Life Technologies (Invitrogen) SelectScreen, Z'-LYTE / Adapta
Method in brief: as §1

[21] = target: T20, NEK1_h (Homo sapiens, UniProt Q96PY6); conditions: KM ATP, read-out: % control
T20 construct: purchased Life Technologies (Invitrogen) SelectScreen, Z'-LYTE / Adapta
Method in brief: as §1

[22] = target: T21, MAPK1_h (Homo sapiens, UniProt P28482); conditions: KM ATP, read-out: % control
T21 construct: purchased Life Technologies (Invitrogen) SelectScreen, Z'-LYTE / Adapta
Method in brief: as §1

[23] = target: T22, SRMS_h (Homo sapiens, UniProt Q9H3Y6); conditions: KM ATP, read-out: % control
T22 construct: purchased Life Technologies (Invitrogen) SelectScreen, Z'-LYTE / Adapta
Method in brief: as §1

[24] = target: T23, MKK6_h (Homo sapiens, UniProt P52564); conditions: 100 µM ATP, read-out: % control
T23 construct: purchased Life Technologies (Invitrogen) SelectScreen, Z'-LYTE / Adapta
Method in brief: as §1

[25] = target: T24, p38-gamma_h (Homo sapiens, UniProt P53778); conditions: KM ATP, read-out: % control
T24 construct: purchased Life Technologies (Invitrogen) SelectScreen, Z'-LYTE / Adapta
Method in brief: as §1

[26] = target: T25, MEK1_h (Homo sapiens, UniProt Q02750); conditions: 100 µM ATP, read-out: % control
T25 construct: purchased Life Technologies (Invitrogen) SelectScreen, Z'-LYTE / Adapta
Method in brief: as §1

[27] = target: T26, MARK4_h (Homo sapiens, UniProt Q96L34); conditions: KM ATP, read-out: % control
T26 construct: purchased Life Technologies (Invitrogen) SelectScreen, Z'-LYTE / Adapta
Method in brief: as §1

[28] = target: T27, CK1-gamma2_h (Homo sapiens, UniProt P78368); conditions: KM ATP, read-out: % control
T27 construct: purchased Life Technologies (Invitrogen) SelectScreen, Z'-LYTE / Adapta
Method in brief: as §1

[29] = target: T28, PRKG1_h (Homo sapiens, UniProt Q13976); conditions: KM ATP, read-out: % control
T28 construct: purchased Life Technologies (Invitrogen) SelectScreen, Z'-LYTE / Adapta
Method in brief: as §1

[30] = target: T29, p38-alpha_h (Homo sapiens, UniProt Q16539); conditions: 100 µM ATP, read-out: % control
T29 construct: purchased Life Technologies (Invitrogen) SelectScreen, Z'-LYTE / Adapta
Method in brief: as §1

[31] = target: T30, HIPK1_h (Homo sapiens, UniProt Q86Z02); conditions: KM ATP, read-out: % control
T30 construct: purchased Life Technologies (Invitrogen) SelectScreen, Z'-LYTE / Adapta
Method in brief: as §1

[32] = target: T31, Pim-2_h (Homo sapiens, UniProt Q9P1W9); conditions: KM ATP, read-out: % control
T31 construct: purchased Life Technologies (Invitrogen) SelectScreen, Z'-LYTE / Adapta
Method in brief: as §1

[33] = target: JAK1_h (Homo sapiens, UniProt P23458)
Method in brief: as §1

[34] = 3 µM, KM ATP, read-out: % control
[35] = 10-point dose-response, commercial vendor

JAK1_h, sequence (P23458 whole entry): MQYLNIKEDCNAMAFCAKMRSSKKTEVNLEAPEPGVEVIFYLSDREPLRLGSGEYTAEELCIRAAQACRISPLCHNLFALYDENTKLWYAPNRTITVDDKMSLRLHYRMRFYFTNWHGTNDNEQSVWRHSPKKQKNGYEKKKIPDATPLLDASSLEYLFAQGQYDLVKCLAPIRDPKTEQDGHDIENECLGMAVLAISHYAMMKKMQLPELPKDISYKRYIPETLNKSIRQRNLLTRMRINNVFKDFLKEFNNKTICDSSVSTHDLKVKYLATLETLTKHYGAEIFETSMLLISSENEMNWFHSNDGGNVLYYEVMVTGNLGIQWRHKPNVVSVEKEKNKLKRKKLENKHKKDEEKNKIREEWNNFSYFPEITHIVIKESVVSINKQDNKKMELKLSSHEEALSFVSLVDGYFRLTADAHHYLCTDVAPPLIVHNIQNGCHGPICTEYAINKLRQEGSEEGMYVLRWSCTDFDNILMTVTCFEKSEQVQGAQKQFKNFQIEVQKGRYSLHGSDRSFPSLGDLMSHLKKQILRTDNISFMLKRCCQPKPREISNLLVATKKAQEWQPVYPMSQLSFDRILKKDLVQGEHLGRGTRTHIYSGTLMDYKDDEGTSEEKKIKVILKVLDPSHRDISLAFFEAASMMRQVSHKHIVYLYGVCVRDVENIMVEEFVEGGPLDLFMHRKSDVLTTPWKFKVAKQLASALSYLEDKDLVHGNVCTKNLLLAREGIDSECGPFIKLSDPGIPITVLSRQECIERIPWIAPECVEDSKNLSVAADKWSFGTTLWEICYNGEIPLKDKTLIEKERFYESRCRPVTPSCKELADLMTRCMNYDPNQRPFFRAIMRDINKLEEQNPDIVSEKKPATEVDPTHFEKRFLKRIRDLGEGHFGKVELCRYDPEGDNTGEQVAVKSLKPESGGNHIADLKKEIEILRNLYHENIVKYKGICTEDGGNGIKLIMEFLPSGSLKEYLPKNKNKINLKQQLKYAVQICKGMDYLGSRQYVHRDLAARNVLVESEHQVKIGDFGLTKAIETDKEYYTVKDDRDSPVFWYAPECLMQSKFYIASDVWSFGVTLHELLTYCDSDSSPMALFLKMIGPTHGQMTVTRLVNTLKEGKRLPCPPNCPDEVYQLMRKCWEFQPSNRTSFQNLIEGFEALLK
Aurora-B_h, sequence (Q96GD4 whole entry): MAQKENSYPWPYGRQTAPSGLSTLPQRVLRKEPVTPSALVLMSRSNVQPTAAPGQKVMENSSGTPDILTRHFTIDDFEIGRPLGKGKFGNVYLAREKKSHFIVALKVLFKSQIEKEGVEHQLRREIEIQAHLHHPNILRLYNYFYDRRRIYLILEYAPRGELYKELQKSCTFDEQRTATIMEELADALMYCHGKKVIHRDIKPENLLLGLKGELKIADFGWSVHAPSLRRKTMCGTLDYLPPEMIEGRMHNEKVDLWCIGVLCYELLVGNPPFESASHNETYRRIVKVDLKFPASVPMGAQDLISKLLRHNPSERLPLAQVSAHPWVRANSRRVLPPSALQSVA
T31 sequence (Q9P1W9 whole entry): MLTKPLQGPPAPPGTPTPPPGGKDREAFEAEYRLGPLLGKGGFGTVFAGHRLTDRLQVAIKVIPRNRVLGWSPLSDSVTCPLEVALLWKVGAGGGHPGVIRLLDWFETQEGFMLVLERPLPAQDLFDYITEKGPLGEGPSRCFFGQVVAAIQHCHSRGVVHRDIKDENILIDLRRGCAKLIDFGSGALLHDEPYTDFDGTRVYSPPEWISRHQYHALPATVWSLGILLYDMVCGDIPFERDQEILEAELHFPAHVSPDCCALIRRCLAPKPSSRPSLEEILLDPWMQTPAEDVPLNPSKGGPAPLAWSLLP
T24 sequence (P53778 whole entry): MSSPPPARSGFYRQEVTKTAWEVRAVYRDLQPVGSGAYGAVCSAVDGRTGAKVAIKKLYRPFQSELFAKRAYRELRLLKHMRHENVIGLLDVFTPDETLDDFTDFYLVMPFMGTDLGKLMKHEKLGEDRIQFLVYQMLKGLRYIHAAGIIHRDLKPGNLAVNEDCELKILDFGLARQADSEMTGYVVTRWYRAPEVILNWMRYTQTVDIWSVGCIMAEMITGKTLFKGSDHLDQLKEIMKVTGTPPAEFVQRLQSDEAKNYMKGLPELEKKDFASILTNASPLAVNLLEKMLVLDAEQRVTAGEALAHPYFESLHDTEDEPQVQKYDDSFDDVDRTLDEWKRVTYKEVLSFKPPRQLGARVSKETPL
T6 sequence (P80192 whole entry): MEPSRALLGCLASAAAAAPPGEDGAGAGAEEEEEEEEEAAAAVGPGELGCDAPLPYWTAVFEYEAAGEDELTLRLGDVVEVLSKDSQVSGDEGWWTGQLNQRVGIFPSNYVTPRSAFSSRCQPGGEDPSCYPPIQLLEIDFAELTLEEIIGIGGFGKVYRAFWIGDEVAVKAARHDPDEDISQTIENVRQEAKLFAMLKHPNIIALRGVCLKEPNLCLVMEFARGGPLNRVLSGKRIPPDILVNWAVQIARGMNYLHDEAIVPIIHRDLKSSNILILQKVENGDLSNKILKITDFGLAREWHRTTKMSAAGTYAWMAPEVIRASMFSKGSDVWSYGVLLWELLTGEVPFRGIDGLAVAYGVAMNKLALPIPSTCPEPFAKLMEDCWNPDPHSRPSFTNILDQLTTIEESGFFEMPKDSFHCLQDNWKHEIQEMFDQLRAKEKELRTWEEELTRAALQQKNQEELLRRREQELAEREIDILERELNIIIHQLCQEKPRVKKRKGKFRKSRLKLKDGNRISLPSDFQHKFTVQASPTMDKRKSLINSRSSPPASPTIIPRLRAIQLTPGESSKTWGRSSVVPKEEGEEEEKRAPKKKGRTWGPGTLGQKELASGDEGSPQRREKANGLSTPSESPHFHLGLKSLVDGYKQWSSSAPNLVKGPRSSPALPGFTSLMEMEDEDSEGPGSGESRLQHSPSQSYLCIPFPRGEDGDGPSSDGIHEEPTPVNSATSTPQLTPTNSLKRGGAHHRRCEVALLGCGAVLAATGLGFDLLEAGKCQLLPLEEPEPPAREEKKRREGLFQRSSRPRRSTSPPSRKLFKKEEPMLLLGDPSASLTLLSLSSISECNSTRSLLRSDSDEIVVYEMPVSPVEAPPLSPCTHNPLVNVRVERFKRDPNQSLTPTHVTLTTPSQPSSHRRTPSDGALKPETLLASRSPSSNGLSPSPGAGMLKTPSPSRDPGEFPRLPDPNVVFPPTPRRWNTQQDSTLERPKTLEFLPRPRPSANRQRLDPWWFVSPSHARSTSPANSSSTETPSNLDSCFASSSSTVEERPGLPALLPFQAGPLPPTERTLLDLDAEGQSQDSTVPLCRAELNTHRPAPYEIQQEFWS
T30 sequence (Q86Z02 whole entry): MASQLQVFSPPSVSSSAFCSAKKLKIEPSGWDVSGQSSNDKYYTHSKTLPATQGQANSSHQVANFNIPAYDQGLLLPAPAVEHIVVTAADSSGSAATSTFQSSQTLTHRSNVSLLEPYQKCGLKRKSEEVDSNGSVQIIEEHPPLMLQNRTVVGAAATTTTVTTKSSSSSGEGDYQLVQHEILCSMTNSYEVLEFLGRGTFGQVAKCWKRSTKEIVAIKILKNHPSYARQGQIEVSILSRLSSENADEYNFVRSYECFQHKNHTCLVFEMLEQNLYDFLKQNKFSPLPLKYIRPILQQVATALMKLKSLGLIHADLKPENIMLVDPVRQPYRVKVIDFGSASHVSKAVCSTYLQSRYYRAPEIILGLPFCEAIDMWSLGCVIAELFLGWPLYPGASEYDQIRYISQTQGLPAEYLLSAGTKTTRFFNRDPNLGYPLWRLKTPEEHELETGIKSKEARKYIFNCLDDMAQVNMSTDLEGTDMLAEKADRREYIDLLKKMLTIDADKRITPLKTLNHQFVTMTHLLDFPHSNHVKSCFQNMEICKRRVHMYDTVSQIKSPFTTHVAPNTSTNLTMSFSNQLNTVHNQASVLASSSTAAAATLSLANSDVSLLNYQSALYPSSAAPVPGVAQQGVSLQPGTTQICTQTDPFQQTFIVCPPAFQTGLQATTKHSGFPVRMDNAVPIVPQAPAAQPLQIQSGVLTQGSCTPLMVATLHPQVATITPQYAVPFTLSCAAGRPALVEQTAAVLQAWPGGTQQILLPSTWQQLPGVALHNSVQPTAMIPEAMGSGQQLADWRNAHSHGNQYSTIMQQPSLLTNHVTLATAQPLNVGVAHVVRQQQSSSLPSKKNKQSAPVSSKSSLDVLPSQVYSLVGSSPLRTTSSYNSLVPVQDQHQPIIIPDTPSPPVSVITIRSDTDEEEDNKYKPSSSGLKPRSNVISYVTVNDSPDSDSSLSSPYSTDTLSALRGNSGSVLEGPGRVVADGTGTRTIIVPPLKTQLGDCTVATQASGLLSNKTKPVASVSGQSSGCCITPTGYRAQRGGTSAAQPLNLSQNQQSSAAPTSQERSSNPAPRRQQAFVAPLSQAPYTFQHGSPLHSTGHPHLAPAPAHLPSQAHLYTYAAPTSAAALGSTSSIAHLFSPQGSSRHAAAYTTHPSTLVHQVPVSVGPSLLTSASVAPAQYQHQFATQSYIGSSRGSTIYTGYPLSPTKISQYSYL
T23 sequence (P52564 whole entry): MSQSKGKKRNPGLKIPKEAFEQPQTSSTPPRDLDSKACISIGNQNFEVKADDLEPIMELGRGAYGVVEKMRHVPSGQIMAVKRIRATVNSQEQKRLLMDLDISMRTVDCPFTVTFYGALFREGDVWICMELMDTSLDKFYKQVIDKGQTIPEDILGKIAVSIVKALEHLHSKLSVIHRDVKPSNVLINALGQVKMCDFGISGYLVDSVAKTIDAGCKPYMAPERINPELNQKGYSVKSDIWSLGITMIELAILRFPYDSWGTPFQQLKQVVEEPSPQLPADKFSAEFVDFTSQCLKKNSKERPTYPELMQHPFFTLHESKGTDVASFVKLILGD

Question: With c1cc(CC2CCOCC2)n2nc(Nc3ccc4c(NC5CCOCC5)n[nH]c4c3)nc2c1 [CC-509, [3-(2H-3,4,5,6-tetrahydropyran-4-ylamino)(1H-indazol-6-yl)][5-(2H-3,4,5,6-tetrahydropyran-4-ylmethyl)(2H-1,2,4-triazolo[1,5-a]pyridin-2-yl)]amine] as the molecule, how does the remaining activity at 3 µM [1] read?
Answer: 42%

Question: And the remaining activity at 3 µM [2]?
Answer: 62%

Question: What about the remaining activity at 3 µM [3, 34] of the same molecule?
Answer: 14%

Question: And the IC50 [3, 35]?
Answer: 410 nM and 409 nM

Question: What about the remaining activity at 3 µM [4] of the same molecule?
Answer: 31%

Question: And the remaining activity at 3 µM [5]?
Answer: 78%

Question: What about the remaining activity at 3 µM [6] of the same molecule?
Answer: 94%

Question: And the remaining activity at 3 µM [7]?
Answer: 2%

Question: And the remaining activity at 3 µM [8]?
Answer: 40%

Question: What about the remaining activity at 3 µM [9] of the same molecule?
Answer: 48%

Question: And the remaining activity at 3 µM [10]?
Answer: 80%

Question: What about the remaining activity at 3 µM [11] of the same molecule?
Answer: 87%

Question: What about the remaining activity at 3 µM [12] of the same molecule?
Answer: 82%

Question: What about the remaining activity at 3 µM [13] of the same molecule?
Answer: 95%

Question: What about the remaining activity at 3 µM [14] of the same molecule?
Answer: 63%

Question: What about the remaining activity at 3 µM [15] of the same molecule?
Answer: 81%

Question: What about the remaining activity at 3 µM [16] of the same molecule?
Answer: 100%

Question: And the remaining activity at 3 µM [17]?
Answer: 4%

Question: And the remaining activity at 3 µM [18]?
Answer: 87%

Question: What about the remaining activity at 3 µM [19] of the same molecule?
Answer: 90%

Question: What about the remaining activity at 3 µM [20] of the same molecule?
Answer: 75%

Question: And the remaining activity at 3 µM [21]?
Answer: 73%

Question: What about the remaining activity at 3 µM [22] of the same molecule?
Answer: 94%

Question: What about the remaining activity at 3 µM [23] of the same molecule?
Answer: 90%

Question: What about the remaining activity at 3 µM [24] of the same molecule?
Answer: 101%

Question: And the remaining activity at 3 µM [25]?
Answer: 95%

Question: What about the remaining activity at 3 µM [26] of the same molecule?
Answer: 65%

Question: What about the remaining activity at 3 µM [27] of the same molecule?
Answer: 33%

Question: What about the remaining activity at 3 µM [28] of the same molecule?
Answer: 68%

Question: What about the remaining activity at 3 µM [29] of the same molecule?
Answer: 96%

Question: And the remaining activity at 3 µM [30]?
Answer: 89%

Question: What about the remaining activity at 3 µM [31] of the same molecule?
Answer: 94%

Question: What about the remaining activity at 3 µM [32] of the same molecule?
Answer: 99%

Question: What about the remaining activity at 3 µM [33, 34] of the same molecule?
Answer: 0%

Question: What about the IC50 [33, 35] of the same molecule?
Answer: 40 nM and 44 nM
